Results from PMC10817943 (Nature Communications, 2024).
Where two headings read alike, the source gives them in different places.

Tests used:
[1] = test system: M. smegmatis mc^2155 reporter strain harboring PradA-LUX; conditions: RadA reporter, ciprofloxacin 0.06 µg/mL, MPA 0.125 µg/mL
[2] = test system: M. smegmatis mc^2155 reporter strain harboring PrecA-LUX; conditions: RecA reporter, ciprofloxacin 0.06 µg/mL, MPA 0.125 µg/mL

O=C(O)c1cn(C2CC2)c2cc(N3CCNCC3)c(F)cc2c1=O [ciprofloxacin, Ciprofloxacin, reference compound]
luminescence induction ([1]; elapsed time 0:00:00): 123 RLU | luminescence induction ([1]; elapsed time 3:00:00): 1612 RLU | luminescence induction ([1]; elapsed time 6:00:00): 2073 RLU | luminescence induction ([1]; elapsed time 9:00:00): 2126 RLU | luminescence induction ([1]; elapsed time 12:00:00): 1993 RLU | luminescence induction ([1]; elapsed time 15:00:00): 2134 RLU | luminescence induction ([1]; elapsed time 18:00:00): 2689 RLU | luminescence induction ([1]; elapsed time 21:00:00): 4077 RLU | luminescence induction ([1]; elapsed time 24:00:00): 6491 RLU | luminescence induction ([1]; elapsed time 27:00:00): 10903 RLU | luminescence induction ([1]; elapsed time 30:00:00): 19150 RLU | luminescence induction ([1]; elapsed time 33:00:00): 33571 RLU | luminescence induction ([1]; elapsed time 36:00:00): 56395 RLU | luminescence induction ([1]; elapsed time 39:00:00): 67383 RLU | luminescence induction ([1]; elapsed time 42:00:00): 103238 RLU | luminescence induction ([1]; elapsed time 45:00:00): 85422 RLU | luminescence induction ([1]; elapsed time 48:00:00): 47660 RLU | luminescence induction ([1]; elapsed time 51:00:00): 21645 RLU | luminescence induction ([1]; elapsed time 54:00:00): 9619 RLU | luminescence induction ([1]; elapsed time 57:00:00): 4843 RLU | luminescence induction ([1]; elapsed time 60:00:00): 2928 RLU | luminescence induction ([1]; elapsed time 63:00:00): 1993 RLU | luminescence induction ([1]; elapsed time 66:00:00): 1543 RLU | luminescence induction ([1]; elapsed time 69:00:00): 1199 RLU | luminescence induction ([1]; elapsed time 72:00:00): 998 RLU | luminescence induction ([1]; elapsed time 75:00:00): 761 RLU | luminescence induction ([1]; elapsed time 78:00:00): 636 RLU | luminescence induction ([1]; elapsed time 81:00:00): 547 RLU | luminescence induction ([1]; elapsed time 84:00:00): 460 RLU | luminescence induction ([1]; elapsed time 87:00:00): 387 RLU | luminescence induction ([2]; elapsed time 0:00:00): 1225 RLU | luminescence induction ([2]; elapsed time 3:00:00): 9623 RLU | luminescence induction ([2]; elapsed time 6:00:00): 25614 RLU | luminescence induction ([2]; elapsed time 9:00:00): 37445 RLU | luminescence induction ([2]; elapsed time 12:00:00): 44651 RLU | luminescence induction ([2]; elapsed time 15:00:00): 48781 RLU | luminescence induction ([2]; elapsed time 18:00:00): 52120 RLU | luminescence induction ([2]; elapsed time 21:00:00): 57807 RLU | luminescence induction ([2]; elapsed time 24:00:00): 68911 RLU | luminescence induction ([2]; elapsed time 27:00:00): 89348 RLU | luminescence induction ([2]; elapsed time 30:00:00): 122834 RLU | luminescence induction ([2]; elapsed time 33:00:00): 178492 RLU | luminescence induction ([2]; elapsed time 36:00:00): 273065 RLU | luminescence induction ([2]; elapsed time 39:00:00): 424870 RLU | luminescence induction ([2]; elapsed time 42:00:00): 486228 RLU | luminescence induction ([2]; elapsed time 45:00:00): 462582 RLU | luminescence induction ([2]; elapsed time 48:00:00): 485841 RLU | luminescence induction ([2]; elapsed time 51:00:00): 408474 RLU | luminescence induction ([2]; elapsed time 54:00:00): 246511 RLU | luminescence induction ([2]; elapsed time 57:00:00): 125742 RLU | luminescence induction ([2]; elapsed time 60:00:00): 64490 RLU | luminescence induction ([2]; elapsed time 63:00:00): 37695 RLU | luminescence induction ([2]; elapsed time 66:00:00): 23762 RLU | luminescence induction ([2]; elapsed time 69:00:00): 17429 RLU | luminescence induction ([2]; elapsed time 72:00:00): 13645 RLU | luminescence induction ([2]; elapsed time 75:00:00): 10589 RLU | luminescence induction ([2]; elapsed time 78:00:00): 8697 RLU | luminescence induction ([2]; elapsed time 81:00:00): 7129 RLU | luminescence induction ([2]; elapsed time 84:00:00): 6189 RLU | luminescence induction ([2]; elapsed time 87:00:00): 5163 RLU
